Reference: patent US20060189576A1, “Substituted vitamin d analogues and their therapeutic uses” (priority 2003, published 2006)
Like-named read-outs stand apart in the source and are kept apart here.

Key:
[1] = for Femur calcium: NMRI mice, 7 consecutive days; for IN VIVO STUDIES Osteocalcin serum: mice, daily intraperitoneal injection 7 consecutive days, percentage activity vs 1α,25(OH)2D3 (=100%); for IN VIVO STUDIES Calcium serum / IN VIVO STUDIES Calcium urine / Serum calcium in mice / further reduction of calcemic activity by the 2β counterpart: mouse, in vivo; for IN VIVO STUDIES Calcium serum / IN VIVO STUDIES Calcium urine / Serum calcium in mice: ip
Experimental: Eight weeks old, male NMRI mice were obtained from the Proefdierencentrum of Leuven (Belgium) and fed a vitamin D-replete diet (0.2% calcium, 1% phosphate, 2000 U vitamin D/kg; Hope Farms, Woerden, The Netherlands). […] The control group was injected with vehicle (arachis oil). The average weight of each group of 6 mice was determined at the beginning and at the end of the experiment. The following parameters were evaluated: serum calcium, serum osteocalcin, femur calcium and urinary calcium. Serum and urinary calcium were measured by a microcolorimetric assay (Sigma, St. Louis, Mo.). Femurs were removed and femur calcium content was measured in HCl-dissolved bone ash (obtained by heating for 24 h in an oven at 100° C.), using the same technique as for serum and urinary calcium.

HL-60 cells = experiment: HL-60 cell differentiation (NBT reduction assay); type: cell-based; details: for IN VITRO STUDIES HL 60: potency to differentiate HL 60 cells, percentage activity vs 1α,25(OH)2D3 (=100%)
Experimental: To evaluate the effect on cell differentiation HL-60 cells were seeded at 4×10^4 cells/ml in 25 cm^2 Falcon tissue chambers using RPMI 1640 medium supplemented with 20% FCS and gentamycin (50 μg/ml) in a final volume of 5 ml. Cultures were maintained at 37° C. in a humidified atmosphere of 5% CO2 in air. […] After 4 days of culture, the dishes were shaken to lose adherent cells. Cells were washed twice in RPMI, counted and assayed for differentiation markers (NBT reduction assay). Superoxide production was measured as NBT reducing activity as described previously (Ostrem V. K et al. Proc Natl Acad Sci USA 84: 2610-2614, 1987). HL-60 cells at 1×10^6/ml were mixed with an equal volume of freshly prepared solution of phorbol 12-myristate 13-acetate (200 ng/ml) and […] and incubated for 30 min at 37° C. The percentage of cells containing black formazan deposits was determined using a hemacytometer.

MCF-7 cells = experiment: MCF-7 cell proliferation ([3H]thymidine incorporation); type: cell-based; details: for IN VITRO STUDIES MCF-7: antiproliferative action, percentage activity vs 1α,25(OH)2D3 (=100%); for Antiproliferative activity on MCF-7 cells: percentage activity (at 50% of the dose response) vs 1α,25(OH)2D3 (=100%); for antiproliferative effect (in words) / antiproliferative activity, times that of 1α,25(OH)2D3: MCF-7 cells
Experimental: To evaluate the effect of on cell proliferation, malignant MCF-7 cells were cultured in DMEM/nut. mix. […] Cultures were maintained at 37° C. in a humidified atmosphere of 5% CO2 in air. MCF-7 cells were seeded at 5×10^3 cells/well in the above described medium in 96-well microtiter plates in a final volume of 0.2 ml per well. Triplicate cultures were performed. […] Then, 1 μCi [^3H]thymidine was added to each well and cells were harvested after 4 h incubation with a Packard harvester and measured by the Packard Topcount System (Packard, Meriden, USA).

vitamin D receptor = target: T1, vitamin D receptor (Sus scrofa, UniProt A3RGC1); details: percentage activity (at 50% of the dose response) in comparison with 1α,25(OH)2D3 (=100%)
T1 sequence (A3RGC1 1-427): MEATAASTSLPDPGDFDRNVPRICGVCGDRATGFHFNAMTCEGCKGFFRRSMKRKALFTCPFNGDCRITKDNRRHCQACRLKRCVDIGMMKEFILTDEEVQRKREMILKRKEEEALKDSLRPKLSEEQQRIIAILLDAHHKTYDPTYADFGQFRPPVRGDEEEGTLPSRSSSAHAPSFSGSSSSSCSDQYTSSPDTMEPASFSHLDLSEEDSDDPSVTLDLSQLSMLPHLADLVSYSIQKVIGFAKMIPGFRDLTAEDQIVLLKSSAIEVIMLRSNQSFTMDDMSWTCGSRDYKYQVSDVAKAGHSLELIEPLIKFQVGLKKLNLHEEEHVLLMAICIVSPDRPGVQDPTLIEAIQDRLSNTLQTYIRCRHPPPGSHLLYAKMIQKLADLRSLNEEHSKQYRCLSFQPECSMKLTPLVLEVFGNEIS
Experimental: The incubation was performed at 4° C. for 20 h and phase separation was obtained by addition of dextran-coated charcoal.

hDBP = target: T2, hDBP (Homo sapiens, UniProt P02774); experiment: Affinity for human DBP: competition with [3H]1α,25(OH)2D3; type: binding; details: percentage activity (at 50% of the dose response) in comparison with 1α,25(OH)2D3 (=100%)
T2 sequence (P02774 17-474): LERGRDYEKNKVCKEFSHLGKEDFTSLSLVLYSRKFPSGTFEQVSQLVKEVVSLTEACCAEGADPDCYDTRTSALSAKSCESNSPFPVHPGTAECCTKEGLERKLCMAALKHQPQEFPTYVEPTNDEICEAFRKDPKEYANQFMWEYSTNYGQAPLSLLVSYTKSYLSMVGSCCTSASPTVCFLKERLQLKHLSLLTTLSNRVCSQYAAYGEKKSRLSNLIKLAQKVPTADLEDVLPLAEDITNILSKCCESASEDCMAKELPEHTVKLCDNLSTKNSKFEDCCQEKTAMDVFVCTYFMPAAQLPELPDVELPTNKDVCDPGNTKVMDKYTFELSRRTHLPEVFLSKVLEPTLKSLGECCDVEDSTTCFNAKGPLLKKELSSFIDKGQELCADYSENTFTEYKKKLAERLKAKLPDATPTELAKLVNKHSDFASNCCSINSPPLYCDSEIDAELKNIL
Experimental: Phase separation was then obtained by the addition of 0.5 ml of cold dextran-coated charcoal.

IN VIVO STUDIES Calcium serum [1] [%]	IN VIVO STUDIES Calcium urine [1] [%]	AFFINITY STUDIES VDR (vitamin D receptor) [%]	AFFINITY STUDIES DBP (hDBP) [%]	further reduction of calcemic activity by the 2β counterpart [1] [fold]	Compound	Femur calcium ([1]; 0.1 μg/kg/d intraperitoneally) [mg]	Femur calcium ([1]; 0.2 μg/kg/d intraperitoneally) [mg]	Femur calcium ([1]; 0.4 μg/kg/d intraperitoneally) [mg]	IN VIVO STUDIES Osteocalcin serum [1] [%]	Serum calcium in mice [1] [%]	IN VITRO STUDIES HL 60 (HL-60 cells) [%]	IN VITRO STUDIES MCF-7 (MCF-7 cells) [%]	Antiproliferative activity on MCF-7 cells (MCF-7 cells) [%]	prodifferentiating effect (in words) (HL-60 cells; HL 60 cells)	times less active than the parent compound to inhibit MCF-7 cell proliferation (MCF-7 cells; parent compound 1α,25(OH)2D3) [times]	antiproliferative effect (in words) (MCF-7 cells)	prodifferentiating activity, times that of 1α,25(OH)2D3 (HL-60 cells; HL 60 cells) [times]	antiproliferative activity, times that of 1α,25(OH)2D3 (MCF-7 cells) [times]	increase of capacity to inhibit the proliferation of MCF-7 cells on introduction of the 23-yne side chain (MCF-7 cells; compared with analogue 102) [times]	times more potent than 1α,25(OH)2D3 in vitro (MCF-7 cells; range over HL 60 differentiation and MCF-7 proliferation, test not specified) [times]
0.3	0.4	19	15		C[C@H](CCCC(C)(C)O)[C@H]1CC[C@@H]2/C(=C/C=C3C[C@@H](O)C[C@H](O)C3)CCC[C@@]21C [14-epi-19-nor-1α,25(OH)2D3, reference compound]						50	30		half as potent as the parent compound	3					
0.5		75	9	80	CC(CCCC(C)(C)O)C1CCC2C(=CC=C3CC(O)C(C)C(O)C3)CCCC21C (stereo not drawn) [Compound 101, 2β-methyl-19-nor-1α,25-dihydroxyvitamin D3]						70	80		less potent than 1α,25(OH)2D3		less potent than 1α,25(OH)2D3				
40		90	50		CC(CCCC(C)(C)O)C1CCC2C(=CC=C3CC(O)C(C)C(O)C3)CCCC21C (stereo not drawn) [Compound 102, 2α-methyl-19-nor-1α,25-dihydroxyvitamin D3]				15		1000	400		very potent		very potent	10	4		
0.4	1.6	20	1		CC(CC#CC(C)(C)O)C1CCC2C(=CC=C3CC(O)C(C)C(O)C3)CCCC21C (stereo not drawn) [Compound 103, 2β-methyl-19-nor-23-yn-1α,25-dihydroxyvitamin D3]				0.8	0.4	100	900	900							
10		70	4		CC(CC#CC(C)(C)O)C1CCC2C(=CC=C3CC(O)C(C)C(O)C3)CCCC21C (stereo not drawn) [Compound 104, 2α-methyl-19-nor-23-yn-1α,25-dihydroxyvitamin D3]				4		1500	10500		very potent		very potent		100	26	
0.4	0.4	60	7		CC(CCCC(C)(C)O)C1CCC2C(=CC=C3CC(O)C(C)C(O)C3)CCCC21C (stereo not drawn) [Compound 105, 14-epi-2β-methyl-19-nor-1α,25-dihydroxyvitamin D3]				0.8		75	20								
13	6	90	9		CC(CCCC(C)(C)O)C1CCC2C(=CC=C3CC(O)C(C)C(O)C3)CCCC21C (stereo not drawn) [Compound 106, 14-epi-2α-methyl-19-nor-1α,25-dihydroxyvitamin D3]				13		600	900		very potent		very potent				
0.4	1.6	10	0		CC(CC#CC(C)(C)O)C1CCC2C(=CC=C3CC(O)C(C)C(O)C3)CCCC21C (stereo not drawn) [Compound 107, 14-epi-2β-methyl-19-nor-23-yn-1α,25-dihydroxyvitamin D3]				0.8		400	350								
0.4	0.8	40	9	16	CCC1C(O)CC(=CC=C2CCCC3(C)C2CCC3C(C)CCCC(C)(C)O)CC1O (stereo not drawn) [Compound 109, 2β-ethyl-19-nor-1α,25(OH)2D3]				0.8		10	90		less active than 1α,25(OH)2D3		less active than 1α,25(OH)2D3				
13	13	90	20		CCC1C(O)CC(=CC=C2CCCC3(C)C2CCC3C(C)CCCC(C)(C)O)CC1O (stereo not drawn) [Compound 110, 2α-ethyl-19-nor-1α,25(OH)2D3]				13		200	650		very potent		very potent				2 to 6
<0.25	<0.25	6	3		CC(CC#CC(C)(C)O)C1CCC2C(=CC=C3CC(O)C(C)C(O)C3)CCCC21C (stereo not drawn) [Compound 118, 1,14-bis-epi-2β-methyl-19-nor-23-yn-1α,25-dihydroxyvitamin-D3]						0			not active at all						
		9			CC(CC#CC(C)(C)O)C1CCC2C(=CC=C3CC(O)C(C)C(O)C3)CCCC21C (stereo not drawn) [Compound 141]						1500	4500		very potent		very potent				
		10			CCC1C(O)CC(=CC=C2CCCC3(C)C2CCC3C(C)CC#CC(C)(C)O)CC1O (stereo not drawn) [Compound 142]						400	1500		very potent		very potent				

Compound	IN VIVO STUDIES Calcium serum [1] [%]	IN VIVO STUDIES Calcium urine [1] [%]	AFFINITY STUDIES VDR (vitamin D receptor) [%]	AFFINITY STUDIES DBP (hDBP) [%]	further reduction of calcemic activity by the 2β counterpart [1] [fold]	Femur calcium ([1]; 0.1 μg/kg/d intraperitoneally) [mg]	Femur calcium ([1]; 0.2 μg/kg/d intraperitoneally) [mg]	Femur calcium ([1]; 0.4 μg/kg/d intraperitoneally) [mg]	IN VIVO STUDIES Osteocalcin serum [1] [%]	Serum calcium in mice [1] [%]	IN VITRO STUDIES HL 60 (HL-60 cells) [%]	IN VITRO STUDIES MCF-7 (MCF-7 cells) [%]	Antiproliferative activity on MCF-7 cells (MCF-7 cells) [%]	prodifferentiating effect (in words) (HL-60 cells; HL 60 cells)	times less active than the parent compound to inhibit MCF-7 cell proliferation (MCF-7 cells; parent compound 1α,25(OH)2D3) [times]	antiproliferative effect (in words) (MCF-7 cells)	prodifferentiating activity, times that of 1α,25(OH)2D3 (HL-60 cells; HL 60 cells) [times]	antiproliferative activity, times that of 1α,25(OH)2D3 (MCF-7 cells) [times]	increase of capacity to inhibit the proliferation of MCF-7 cells on introduction of the 23-yne side chain (MCF-7 cells; compared with analogue 102) [times]	times more potent than 1α,25(OH)2D3 in vitro (MCF-7 cells; range over HL 60 differentiation and MCF-7 proliferation, test not specified) [times]
C=C1/C(=C\C=C2/CCC[C@]3(C)[C@@H]([C@H](C)CCCC(C)(C)O)CC[C@@H]23)C[C@@H](O)C[C@@H]1O [1α,25(OH)2D3, 1α,25-dihydroxyvitamin D3, reference compound]	100	100				8.9 ± 0.50	9.23 ± 0.31	8.75 ± 0.15	100	100	100	100	100							
